Laboratory results: US9717756B2, “Method of treating traumatic brain or spinal cord injury with biomembrane sealing agent and magnesium compounds” (Warsaw Orthopedic, Inc., priority 2006, dated 2017)

How the values were obtained:
[1] = system: carrageenan-induced hind paw acute inflammation; assay: Carrageenan hind paw acute inflammation, mechanical allodynia (up-down method); format: in vivo, rat; details: Example 7, 24 hours after carrageenan
Procedure: Animals were treated with saline (0.5% final), indomethacin, PEG, magnesium or combined PEG+magnesium solutions. Each animal received 2 injections, the first one 1 hour following carrageenan injection and the second injection 6 hours later. The total dose of PEG and magnesium chloride administered was of 2 and 0.135 g/kg (body weight) respectively. There were 10 animals per group.
Indomethacin (Fluka, cat. 57413, lot 450544/1) was dissolved in 25% hydroxyl-propyl beta cyclodextrin (hpBCD) by gentle heating and stirring. The PEG solution was composed of PEG3350 at 30% in 0.5% saline, the magnesium solution was composed of magnesium chloride at 2% and the combined PEG+magnesium solution was composed of 30% PEG3350+2% Magnesium Chloride (custom made by AAIPharma Developmental Services, Wilmington, N.C.). […]
Twenty-four hours following carrageenan injection into the left paw, the same paw was tested for mechanical allodynia. Baseline and post-treatment values for non-noxious mechanical sensitivity were evaluated using 8 Semmes-Weinstein filaments (Stoelting, Wood Dale, Ill., USA) with varying stiffness (0.4, 0.7, 1.2, 2.0, 3.6, 5.5, 8.5, and 15 g) according to the up-down method (Chaplan et al., 1994). […]
To evaluate the significance of difference between experimental groups, data were analyzed using an unpaired, two-tailed t statistical test with confidence intervals of 95%.

[2] = system: controlled cortical impact model of brain injury (TBI); assay: Morris Water Maze test of cognitive function after controlled cortical impact TBI; format: in vivo, rat
Source text: Male Sprague-Dawley rats (Harlan Sprague-Dawley, Indianapolis, Ind.), weighing 350-450 grams each were given free access to food and water before the experiment. The animals were anesthetized with halothane (1% in 70%/30% NO2/O2 by mask).
Animals were anesthetized with isoflorane and placed in a stereotaxic frame in the supine position. A 6 mm craniotomy located approximately midway between bregma and lambda, just above the somatosensory cortex, was made using a Michele trephine. The skull disk was then removed without disturbing the underlying dura mater. The exposed brain was injured using an electronically controlled piston (5 mm diameter, 65 kdynes). The animals in the “sham” group underwent identical surgical procedures, but the surface of the brain was not impacted.
Following surgery, animals were placed in their home cage and dosing was initiated. Animals were treated with saline (Group 1: sham, Group 2: injured), PEG (Group 3: injured), magnesium (Group 4: injured) or a combination of PEG and magnesium solutions (Group 5: injured). The PEG solution was composed of PEG3350 at 30% in 0.5% saline (custom made by AAIPharma Developmental Services, Wilmington, N.C.). […] The magnesium solution was diluted in saline 1:1 before intravenous injection as recommended by the manufacturer. In the cases of combined PEG+Mg combined treatments, animal received the PEG and magnesium components from two individual solutions.
In more details, each animal received 2 injections: • Group 1: Sham—1.23 ml/kg of saline solution followed by 1.23 ml/kg of saline solution; • Group 2: Injured—1.23 ml/kg of saline solution followed by 1.23 ml/kg of saline solution; • Group 3: Injured—2.33 ml/kg of PEG solution followed by 0.12 ml/kg of saline solution; • Group 4: Injured—0.12 ml/kg of magnesium solution followed by 2.33 ml/kg of saline solution; • Group 5: Injured—2.33 ml/kg of PEG solution followed by 0.12 ml/kg of magnesium solution. […]
The effects of PEG, magnesium sulfate and combined treatment on recovery of cognitive function following TBI were evaluated using the Morris Water Maze Test. […]

[3] = system: pain; details: human, in vivo; cited from earlier work
[4] = system: spinal cord contusion at T10 (SCI); assay: Locomotor recovery, modified 12-point BBB scale, after spinal cord contusion (dural impact model); format: in vivo, rat; details: Example 4; iv, 15 min and 6 h post-injury; total 2 g/kg PEG, 0.12 g/kg magnesium sulfate
Procedure: Sprague-Dawley female rats (200-225 gm) received a spinal cord contusion using the Precision Scientific Inc pneumatic impactor. Prior to surgery, rats were assigned to different treatment groups based on a randomized block design so that on any given surgery day all treatments would be included. The rats were anesthetized with ketamine (80 mg/kg) and xylazine (10 mg/kg) before a laminectomy will be performed at the 10th thoracic vertebra (T10). The vertebral column was stabilized with angled clamps on the upper thoracic (T8) and lumbar (T11) levels and the impactor with a tip diameter of 2 mm was delivered at approximately 50 kd onto the exposed, intact dura overlying the dorsal spinal cord. The impactor was immediately removed, the wound irrigated with saline, and the muscle and skin openings sutured together. Female animals were used due to the paralysis associated with the injury and ease of voiding the bladder.
Following surgery, animals were placed in their home cage and dosing was initiated. Animals were treated with saline (Group 1: sham, Group 2: injured), PEG (Group 3: injured), magnesium (Group 4: injured) or a combination of PEG and magnesium solutions (Group 5: injured). […]
(§1) To evaluate the significance of difference between experimental groups, data were analyzed using an unpaired, two-tailed t statistical test with confidence intervals of 95%. […]

[5] = system: spinal cord contusion at T10 (SCI); assay: Spinal cord lesion volume after SCI contusion (eriochrome cyanine sections); format: in vivo, rat; details: Example 4, sacrificed on day 14, total 2 g/kg PEG, 0.12 g/kg magnesium sulfate
Procedure: Following surgery, animals were placed in their home cage and dosing was initiated. […]
At the end of the study, the spinal cords were extracted and fixed in 4% paraformaldehyde. […] Tissue sparing was determined by computed image analysis be from 10 evenly spaced sections through the injured T10 segment. […]

[6] = system: clip-compression injury at T4 (SCI); assay: Locomotor recovery, 21-point BBB open field test, after clip-compression SCI; format: in vivo, rat; details: Example 5; day 7 post-SCI; total 0.6 g/kg magnesium sulfate iv
Procedure: Wistar female rats weighing 200-250 grams received a controlled clip-compression injury at T4. This experimental model has been previously described in details in Gris et al., 2004. Briefly, animals were premedicated with diazepam (3.5 mg/kg, i.p.) and atropine (0.05 mg/kg, s.c.) in order to facilitate a smooth induction of anesthesia by 4% halothane and maintenance with 1.0-1.5% halothane. The T4 spinal cord segment was exposed by dorsal laminectomy and a modified aneurysm clip, calibrated to 50 grams compression was passed extradurally around the cord and spring released for 60 seconds. Nerve roots were not disrupted during the clip compression.
Following SCI, animals were placed in their home cage and dosing was initiated. […]
Locomotor recovery was assessed by the 21-point Basso, Beatie and Bresnahan (BBB) open field locomotor test (Basso et al., 1995), from day 3-21 after injury. Locomotor function was evaluated by 2 blinded investigators at each testing period.
as §1
Following SCI, rats were treated with saline, PEG, Mg or a combined solution of PEG and Mg. Locomotor recovery was assessed by the 21-point BBB score system from day 3-25 post-injury.

[7] = system: neuropathic pain after SCI; assay: Mechanical allodynia (neuropathic pain score, Semmes-Weinstein monofilament) after SCI; format: in vivo, rat; details: Example 6; up to 3 weeks post-injury
Procedure: Animals were prepared as described in Example 3.
Animals were tested for the development of neuropathic pain before and up to 3 weeks post-injury. Neuropathic pain occurrence and severity was evaluated by the response of the animal to a stimulus that is normally not painful or allodynia. Briefly, a modified Semmes-Weinstein monofilament (Stoelting Co, Wood Dale, Ill.) calibrated to generate a force of 15 mN was applied to the dorsal trunk at dermatomes corresponding to spinal segments immediately rostral to the lesion level (T1-T3). The monofilament was applied 10 times for 3 seconds, with each stimulus being separated by a 5 second interval, and the number of avoidance responses out of a possible 10 were recorded. Avoidance responses were defined as flinching, escape, vocalization, or abnormal aggressive behaviors. The scoring system used to monitor mechanical allodynia has been presented in details in Gris et al., 2004. Mechanical allodynia testing was conducted twice per week and the 2 tests were averaged for each animal and reported as a weekly pain score.
To evaluate the significance of difference between experimental groups, data were analyzed using an unpaired, two-tailed t statistical test with confidence intervals of 95%. The Welch's modification was also used to analyze the motor recovery to take in account the significant variability in the control group. […]

[8] = system: stroke; details: intravenous, up to 12 hours following stroke onset; 2589 patients; cited from earlier work
[9] = system: TBI; details: trial initiated in 1999; cited from earlier work

Q: With `COc1ccc2c(c1)c(CC(=O)O)c(C)n2C(=O)c1ccc(Cl)cc1` [Indomethacin] as the molecule, how does the “mean pain score (mechanical allodynia)” value ([1]; carrageenan-saline 3.4+/−0.5, sham 12.7+/−1.1, higher is better) read?
A: Its value is 5.6+/−0.9.

Q: With `[Cl-].[Cl-].[Mg+2]` [Magnesium, magnesium chloride] as the molecule, how does the “effect on the loss of cognitive functions following brain injury” value ([2]; summary statement in the description) read?
A: The value was “no effect”.

Q: What about the “effect on the pain score relative to animals treated with saline” value ([1]; total 2 g/kg PEG or 0.135 g/kg magnesium chloride) of the same molecule?
A: Its value is “no significant effect”.

Q: And the “duration of analgesic effect” value [3]?
A: The value was ≤ 4 h.

Q: With `O=S(=O)([O-])[O-].[Mg+2]` [Mg, magnesium sulfate] as the molecule, how does the “effect on cognitive functions following TBI” value ([2]; Example 1, iv, 15 min and 6 h post-injury, total 1.4 g/kg PEG or 0.230 mmol/kg magnesium sulfate) read?
A: Its value is “no effect”.

Q: And the “effect on motor functions following SCI (12-point BBB score) relative to SCI-Saline group” value [4]?
A: Its value is “no effect”.

Q: What about the “reduction of the lesion volume relative to control group (SCI-Saline)” value [5] of the same molecule?
A: Its value is 33%.

Q: What about the “effect on motor recovery (21-point BBB)” value [6] of the same molecule?
A: Its value is “Some improvement”.

Q: What about the “effect on the development of neuropathic pain after SCI” value [7] of the same molecule?
A: The value was “no significant effect”.

Q: And the “clinical improvement after stroke” value [8]?
A: Its value is “no significant improvement”.

Q: What about the “preliminary data of clinical trial in TBI patients” value [9] of the same molecule?
A: Its value is “negative”.

Q: With `[Cl-].[Cl-].[Mg+2]` [magnesium chloride] as the molecule, how does the “effect on cognitive recovery after TBI” value ([2]; Example 2, total 1.4 g/kg PEG or 0.230 mmol/kg magnesium chloride) read?
A: The value was “no significant effect”.
